Measured values taken from patent US9999656B2, “Treatment of short bowel syndrome patients with colon-in-continuity” (Shire-NPS Pharmaceuticals, Inc., priority 2004, dated 2018).

Tests used:
[1] = system: patients with short bowel syndrome (SBS); test: Safety monitoring (adverse events, laboratory, vital signs, ECGs, antibodies)
Description: During each inpatient period, patients underwent 72-hour nutrient balance and D-Xylose absorption studies, and a proximal or distal endoscopy to ascertain the condition of the intestinal mucosa and obtain biopsy samples. In jejunostomy patients, biopsies were obtained through the jejunostomy stoma or by upper gastrointestinal endoscopy. In patients with colon-in-continuity, colo-rectal biopsies were obtained. Teduglutide treatment began on Day 1 (immediately after the baseline period) and continued once-daily for 21 days. […] Patients were monitored for safety (adverse events, physical exams, vital signs, ECGs, laboratory results, and injection site examinations) during the inpatient periods and during outpatient visits on days 7 and 14.

[2] = system: patients with short bowel syndrome (SBS); test: 72-hour nutrient balance studies in open-label pilot study of teduglutide; assay type: in vivo, human; conditions: for Energy Absorption (% of intake), Effect of Treatment (Treatment minus Baseline) mean ± SD / Energy Absorption, Effect of Treatment (Treatment minus Baseline) mean ± SD / Energy Fecal, Effect of Treatment (Treatment minus Baseline) mean ± SD / Urine Wet Weight, Effect of Treatment (Treatment minus Baseline) mean ± SD / Wet Weight Absorption (% of intake), Effect of Treatment (Treatment minus Baseline) mean ± SD / Wet Weight Absorption, Effect of Treatment (Treatment minus Baseline) mean ± SD / Wet Weight Fecal, Effect of Treatment (Treatment minus Baseline) mean ± SD: Days 18-21 vs baseline; for decrease in fecal energy excretion compared to baseline: stated as reduction
Procedure: This was an open-label, pilot study to determine the safety and effect of teduglutide in patients with short bowel syndrome (SBS). The patient's history was reviewed and a physical examination performed to determine eligibility before inclusion in the study. Estimated residual small intestine and colon lengths were determined by reviewing operative reports and available radiographic studies. Eligible patients were admitted as inpatients to hospital wards or General Clinic Research Centers (GCRC) on three separate occasions, 18 days apart, for the last four days and three nights of the baseline period and at the end of the treatment and follow-up periods. Treatment consisted of recombinant teduglutide (supplied by NPS Allelix, Mississauga, ON, Canada) formulated as a lyophilized powder with L-histidine, mannitol, and monobasic and dibasic sodium phosphate (Lot 8502901). Water was added to reconstitute the drug for administration by subcutaneous (s.c.) injections in the abdomen or thigh. Ten SBS patients with jejunostomy received 0.03 mg/kg/d, 0.10 mg/kg/d or 0.15 mg/kg/d once daily for 21 days. Five SBS patients with ≥50% colon-in-continuity received teduglutide 0.10 mg/kg/d once daily for 21 days.
The 72-hour nutrient balance studies were completed with each patient eating their usual diet, calculated from a seven-day food diary completed by the patient during the screening period. It was intended that patients eat the same quantity and quality of food and beverages during each admission. During the 72-hour balance periods, all oral intake (duplicate meals and beverages and declined food), fecal/stomal output, and urine were collected and weighed. All stool samples were refrigerated during the collection period. Stools and diets were separately homogenized and analyzed for energy content (by bomb calorimetry), nitrogen (by the macro-Kjeldahl's method), fat (by the gravimetric technique), and sodium and potassium (by atomic absorption).
Using the SAS (Version 8.2; SAS Institute, Cary, N.C.) statistical program, a Student's paired t test was employed that compared treatment to baseline values, and follow-up to baseline values. No comparisons were made between patients on different doses or with different anatomy due to the limited number of patients in the study. Data are expressed as mean±SD. A value of p<0.05 was considered significant.

[3] = Group 2 SBS end-jejunostomy, N=10, 0.03-0.15 mg/kg/d s.c. once daily 21 days
[4] = Group 2 SBS end-jejunostomy, N=10, follow-up Days 39-42 vs baseline
[5] = Group 2 SBS end-jejunostomy, of N=10
[6] = Group 3 SBS ≥50% colon-in-continuity, N=5, 0.10 mg/kg/d s.c. once daily 21 days
[7] = Group 3 SBS ≥50% colon-in-continuity, N=5, follow-up Days 39-42 vs baseline

For CC[C@H](C)[C@H](NC(=O)[C@H](Cc1ccccc1)NC(=O)[C@H](CC(=O)O)NC(=O)[C@H](CCCNC(=N)N)NC(=O)[C@H](C)NC(=O)[C@H](C)NC(=O)[C@H](CC(C)C)NC(=O)[C@H](CC(N)=O)NC(=O)[C@H](CC(=O)O)NC(=O)[C@H](CC(C)C)NC(=O)[C@@H](NC(=O)[C@@H](NC(=O)[C@H](CC(N)=O)NC(=O)[C@H](CCSC)NC(=O)[C@H](CCC(=O)O)NC(=O)[C@H](CC(=O)O)NC(=O)[C@H](CO)NC(=O)[C@H](Cc1ccccc1)NC(=O)[C@H](CO)NC(=O)CNC(=O)[C@H](CC(=O)O)NC(=O)CNC(=O)[C@@H](N)Cc1c[nH]cn1)[C@@H](C)O)[C@@H](C)CC)C(=O)N[C@@H](CC(N)=O)C(=O)N[C@@H](Cc1c[nH]c2ccccc12)C(=O)N[C@@H](CC(C)C)C(=O)N[C@H](C(=O)N[C@@H](CCC(N)=O)C(=O)N[C@H](C(=O)N[C@@H](CCCCN)C(=O)N[C@H](C(=O)N[C@H](C(=O)N[C@@H](CC(=O)O)C(=O)O)[C@@H](C)O)[C@@H](C)CC)[C@@H](C)O)[C@@H](C)CC [teduglutide, [Gly2]hGLP-2], the antibodies to teduglutide ([1]; SBS patients, 21 days dosing) was “No antibodies to teduglutide were detected”, the “deaths and withdrawals due to adverse events” value ([1]; all patients) was “no deaths and no withdrawals due to adverse events” and the injection site reactions ([1]; in vivo) was “Three patients had minor injection site reactions”. For the same compound, the laboratory values ([1]; in vivo) was “No clinically significant abnormal laboratory values”, the “most common AEs” value ([1]; in vivo) was “edema of the lower limbs, and localized swelling of the jejunostomy nipple” and the “relation of serious AEs (catheter-related infection or complication, two patients) to drug” value ([1]; in vivo) was “None of these were judged to be related to teduglutide”. For the same compound, the “vital signs or ECGs” value ([1]; in vivo) was “No safety concerns were raised”, the “Energy Absorption (% of intake), Effect of Treatment (Treatment minus Baseline) mean ± SD” value [2, 3] was 5 ± 20 % of intake and the “Energy Absorption, Effect of Treatment (Treatment minus Baseline) mean ± SD” value [2, 3] was 363 ± 2656 kJ/day. The “Energy Fecal, Effect of Treatment (Treatment minus Baseline) mean ± SD” value [2, 3] was -532 ± 1703 kJ/day, the “Urine Wet Weight, Effect of Treatment (Treatment minus Baseline) mean ± SD” value [2, 3] was 680 ± 535 g/day and the “Wet Weight Absorption (% of intake), Effect of Treatment (Treatment minus Baseline) mean ± SD” value [2, 3] was 20±18 % of intake. The “Wet Weight Absorption, Effect of Treatment (Treatment minus Baseline) mean ± SD” value [2, 3] was 788 ± 551 g/day, the “Wet Weight Fecal, Effect of Treatment (Treatment minus Baseline) mean ± SD” value [2, 3] was -682 ± 911 g/day and the “Energy Absorption (% of intake), Effect at Follow up (Follow up minus Baseline) mean ± SD” value [2, 4] was −6 ± 12 % of intake. For the same compound, the “Energy Absorption, Effect at Follow up (Follow up minus Baseline) mean ± SD” value [2, 4] was -800 ± 2958 kJ/day, the “Energy Fecal, Effect at Follow up (Follow up minus Baseline) mean ± SD” value [2, 4] was 320 ± 1200 kJ/day and the “Urine Wet Weight, Effect at Follow up (Follow up minus Baseline) mean ± SD” value [2, 4] was 11 ± 287 g/day. The “Wet Weight Absorption (% of intake), Effect at Follow up (Follow up minus Baseline) mean ± SD” value [2, 4] was −9 ± 16 % of intake, the “Wet Weight Absorption, Effect at Follow up (Follow up minus Baseline) mean ± SD” value [2, 4] was -218 ± 577 g/day and the “Wet Weight Fecal, Effect at Follow up (Follow up minus Baseline) mean ± SD” value [2, 4] was 278 ± 496 g/day. For the same compound, the “Energy Absorption (% of intake), Patients With Beneficial Effect” value [2, 5] was 6, the “Energy Absorption (kJ/day), Patients With Beneficial Effect” value [2, 5] was 6 and the “Energy Fecal, Patients With Beneficial Effect” value [2, 5] was 8. For the same compound, the “Urine Wet Weight, Patients With Beneficial Effect” value [2, 5] was 8, the “Wet Weight Absorption (% of intake), Patients With Beneficial Effect” value [2, 5] was 8 and the “Wet Weight Absorption (g/day), Patients With Beneficial Effect” value [2, 5] was 9. The “Wet Weight Fecal, Patients With Beneficial Effect” value [2, 5] was 8, the “decrease in fecal wet weight compared to baseline” value ([2]; Group 2 SBS end-jejunostomy, 21-day treatment, stated as decrease) was 682 ± 911 g/day and the “decrease in fecal energy excretion compared to baseline” value ([2]; Group 2 SBS end-jejunostomy, p>0.05) was 532 ± 1703 kJ/day. For the same compound, the “decrease in fecal energy excretion compared to baseline” value ([2]; Group 3 SBS colon-in-continuity) was 1343 ± 916 kJ/day, the “Energy Absorption (% of intake), Effect of Treatment (Treatment minus Baseline) mean ± SD” value [2, 6] was 10±7 % of intake and the “Energy Absorption, Effect of Treatment (Treatment minus Baseline) mean ± SD” value [2, 6] was 1027 ± 798 kJ/day. The “Energy Fecal, Effect of Treatment (Treatment minus Baseline) mean ± SD” value [2, 6] was -1343 ± 916 kJ/day, the “Urine Wet Weight, Effect of Treatment (Treatment minus Baseline) mean ± SD” value [2, 6] was 461 ± 200 g/day and the “Wet Weight Absorption (% of intake), Effect of Treatment (Treatment minus Baseline) mean ± SD” value [2, 6] was 26±16 % of intake. The “Wet Weight Absorption, Effect of Treatment (Treatment minus Baseline) mean ± SD” value [2, 6] was 751 ± 328 g/day, the “Wet Weight Fecal, Effect of Treatment (Treatment minus Baseline) mean ± SD” value [2, 6] was -822 ± 341 g/day and the “Energy Absorption (% of intake), Effect at Follow up (Follow up minus Baseline) mean ± SD” value [2, 7] was 10 ± 17 % of intake. The “Energy Absorption, Effect at Follow up (Follow up minus Baseline) mean ± SD” value [2, 7] was 907 ± 1146 kJ/day, the “Energy Fecal, Effect at Follow up (Follow up minus Baseline) mean ± SD” value [2, 7] was -997 ± 1713 kJ/day and the “Urine Wet Weight, Effect at Follow up (Follow up minus Baseline) mean ± SD” value [2, 7] was -90 ± 281 g/day.
